According to ChEMBL document CHEMBL3244068 (J Med Chem, 1978):

Experiments:
[1] = test system: W256; assay: Antitumor activity against rat Walker 256 cells allografted in rat; type: functional
[2] = Ratio of LD50 for rat allografted with rat Walker 256 cells to ED90 for rat Walker 256 cells allografted in rat
[3] = species: Rattus norvegicus; assay: Toxicity in rat allografted with rat Walker 256 cells; type: organism-based
[4] = test system: L1210; assay: Antitumor activity against mouse L1210 cells assessed as dose required to produce T/C of 125% administered for 15 days; type: functional
[5] = Stability of the compound in acetone assessed as hydrolysis at 66 degC after 30 mins; type: physicochemical; conditions: 0.5 h
[6] = test system: L1210; assay: Antitumor activity against mouse L1210 cells assessed as dose required to produce T/C of 125% administered for 9 days; type: functional
[7] = test system: L1210; assay: Antitumor activity against mouse L1210 cells assessed as dose required to produce T/C of 125% administered for 10 days; type: functional
[8] = Drug metabolism assessed as log K of Holtzman rat liver esterase-mediated hydrolysis after 5 mins; type: ADME, tissue-based; conditions: isolated protein
[9] = test system: P388; assay: Antitumor activity against mouse P388 cells allografted in mouse assessed as dose required to produce T/C of 125% administered for 9 days; type: functional
[10] = test system: P388; assay: Antitumor activity against mouse P388 cells allografted in mouse assessed as dose required to produce T/C of 180% administered for 9 days; type: functional
[11] = test system: L1210; assay: Antitumor activity against mouse L1210 cells assessed as dose required to produce T/C of 125% administered for 8 days; type: functional
[12] = test system: P388; assay: Antitumor activity against mouse P388 cells allografted in mouse assessed as dose required to produce T/C of 125% administered for 10 days; type: functional
[13] = test system: P388; assay: Antitumor activity against mouse P388 cells allografted in mouse assessed as dose required to produce T/C of 180% administered for 10 days; type: functional

O=C(Oc1ccc(N(CCCl)CCCl)cc1)c1ccc(Br)cc1
log1/CED90 [1]: 4.84
Ratio [2]: 3.5
log1/CLD50 [3]: 4.19

COc1cccc(C(=O)Oc2ccc(N(CCBr)CCBr)cc2)c1
Ratio [2]: 3.5
log1/CLD50 [3]: 5.25

O=C(Oc1ccc(N(CCBr)CCBr)cc1)c1cccc([N+](=O)[O-])c1
log1/CED90 [1]: 4.67
Ratio [2]: 3.5
log1/CLD50 [3]: 5.07

CCOC(=O)CCOc1ccccc1N(CCCl)CCCl
log(1/C) [4]: 4.67

O=C(Oc1ccc(N(CCCl)CCCl)cc1)c1ccc(F)cc1
log1/CED90 [1]: 4.9
Ratio [2]: 3.5
log1/CLD50 [3]: 4.21

Cc1ccc(C(=O)Oc2ccc(N(CCCl)CCCl)cc2)cc1
log1/CED90 [1]: 4.78
Ratio [2]: 3.5
log1/CLD50 [3]: 4.2

ClCCN(CCCl)c1ccc(/C=C/c2ccccc2)cc1
log K [5]: -3.95
log(%) [5]: 1.26

CC(=O)Nc1cccc(N(CCOS(C)(=O)=O)CCOS(C)(=O)=O)c1
log(1/C) [6]: 5.67

Cc1cccc(C)c1C(=O)Oc1ccc(N(CCCl)CCCl)cc1
log1/CED90 [1]: 3.31
Ratio [2]: 3.5
log1/CLD50 [3]: 3.1

O=C(O)CCCc1ccc(N(CCCl)CCCl)cc1 [CHLORAMBUCIL]
log1/CED90 [1]: 5.12
log K [5]: -3.65
log1/CLD50 [3]: 4.03

Cc1cccc(C(=O)Oc2ccc(N(CCBr)CCBr)cc2)c1
log1/CED90 [1]: 5.18
Ratio [2]: 3.5
log1/CLD50 [3]: 5.16

O=C(Oc1ccc(N(CCCl)CCCl)cc1)c1cccc(F)c1
log1/CED90 [1]: 4.88
Ratio [2]: 3.5
log1/CLD50 [3]: 4.38

CS(=O)(=O)OCCN(CCOS(C)(=O)=O)c1cccc(Cl)c1
log(1/C) [7]: 4.85

O=C(Oc1ccc(N(CCCl)CCCl)cc1)c1cccc([N+](=O)[O-])c1
log1/CED90 [1]: 4.81
Ratio [2]: 3.5
log1/CLD50 [3]: 4.4

CC(=O)Nc1cc(N(CCOS(C)(=O)=O)CCOS(C)(=O)=O)ccc1N=O
log(1/C) [4]: 6.05

O=C(Oc1ccc(N(CCCl)CCCl)cc1)c1ccccc1
log1/CED90 [1]: 4.86
Ratio [2]: 3.5
log1/CLD50 [3]: 4.06

CCN(CC)c1ccc(OC(=O)c2cccc([N+](=O)[O-])c2)cc1
log K [8]: 0.55

CCN(CC)c1ccc(OC(=O)c2cccc(OC)c2)cc1
log K [8]: 0.15

CS(=O)(=O)OCCN(CCOS(C)(=O)=O)c1ccc(N=O)c(Cl)c1
log(1/C) [4]: 6.03

Cc1cccc(C)c1C(=O)Oc1ccc(N(CCBr)CCBr)cc1
log1/CED90 [1]: 3.81
Ratio [2]: 3.5
log1/CLD50 [3]: 3.58

O=C(Oc1ccc(N(CCBr)CCBr)cc1)c1ccc([N+](=O)[O-])cc1
log1/CED90 [1]: 4.86
Ratio [2]: 3.5
log1/CLD50 [3]: 5.37

ClCCN(CCCl)c1ccc2ccccc2c1 [CHLORNAPHAZINE]
log(%) [5]: 1.18

Cc1ccccc1C(=O)Oc1ccc(N(CCBr)CCBr)cc1
log1/CED90 [1]: 4.96
Ratio [2]: 3.5
log1/CLD50 [3]: 4.96

O=C(Oc1ccc(N(CCBr)CCBr)cc1)c1ccccc1
log1/CED90 [1]: 5.45
Ratio [2]: 3.5
log1/CLD50 [3]: 5.45

CS(=O)(=O)OCCN(CCOS(C)(=O)=O)c1ccc([N+](=O)[O-])cc1
log(1/C) [7]: 3.74

COc1ccc(C(=O)Oc2ccc(N(CCBr)CCBr)cc2)cc1
log1/CED90 [1]: 5.12
Ratio [2]: 3.5
log1/CLD50 [3]: 5.21

COc1ccc(C(=O)Oc2ccc(N(CCCl)CCCl)cc2)cc1
log1/CED90 [1]: 4.89
Ratio [2]: 3.5
log1/CLD50 [3]: 4.11

O=C(Oc1ccc(N(CCCl)CCCl)cc1)c1cccc(Br)c1
log1/CED90 [1]: 4.22
Ratio [2]: 3.5
log1/CLD50 [3]: 3.84

Cc1ccc(S(=O)(=O)OCCN(CCOS(=O)(=O)c2ccc(C)cc2)c2ccccc2)cc1
log(1/C) [4]: 3.8

CCN(CC)c1ccc(OC(=O)c2ccc(C(F)(F)F)cc2)cc1
log K [8]: 0.45

CS(=O)(=O)OCCN(CCOS(C)(=O)=O)c1ccccc1
log(1/C) [4]: 3.97

CCN(CC)c1ccc(OC(=O)c2ccc(Cl)cc2)cc1
log K [8]: 0.2

CS(=O)(=O)OCCN(CCOS(C)(=O)=O)c1cccc(C(F)(F)F)c1
log(1/C) [4]: 4.42

CCOC(=O)CCCc1ccc(N(CCCl)CCCl)cc1
log K [5]: -3.84
log(%) [5]: 1.36

CCC(=O)OCC(Br)CBr (stereo not drawn)
log(1/C) [4]: 5.83

O=C(Oc1ccc(N(CCCl)CCCl)cc1)c1cccc(Cl)c1
log1/CED90 [1]: 4.55
Ratio [2]: 3.5
log1/CLD50 [3]: 3.95

Cc1ccc(S(=O)(=O)OCCN(CCOS(=O)(=O)c2ccc(C)cc2)c2ccc(F)cc2)cc1
log(1/C) [6]: 4.2

CCOC(=O)c1cc(N(CCOS(C)(=O)=O)CCOS(C)(=O)=O)ccc1N
log(1/C) [4]: 4.85

CCN(CC)c1ccc(OC(=O)c2cccc(C(F)(F)F)c2)cc1
log K [8]: 0.34

CCN(CC)c1ccc(OC(=O)c2ccc([N+](=O)[O-])cc2)cc1
log K [8]: 0.67

CS(=O)(=O)OCCN(CCOS(C)(=O)=O)c1ccc([N+](=O)[O-])c(Cl)c1
log(1/C) [4]: 3.02

O=C(O)c1ccccc1N(CCO)CCCl
log(1/C) [4]: 4.94

Cc1cc(N(CCOS(C)(=O)=O)CCOS(C)(=O)=O)ccc1N=O
log(1/C) [7]: 6.4

CCN(CC)c1ccc(OC(=O)c2ccc(OC)cc2)cc1
log K [8]: -0.49

O=C(Oc1ccc(N(CCBr)CCBr)cc1)c1ccc(Cl)cc1
log1/CED90 [1]: 4.66
Ratio [2]: 3.5
log1/CLD50 [3]: 5.18

ClCCN(CCCl)c1ccc(/N=C/c2ccccc2)cc1
log(1/C) [9]: 5.33
log(1/C) [10]: 5

Cc1ccccc1C(=O)Oc1ccc(N(CCCl)CCCl)cc1
log1/CED90 [1]: 4.55
Ratio [2]: 3.5
log1/CLD50 [3]: 3.71

Cc1ccc(S(=O)(=O)OCCN(CCOS(=O)(=O)c2ccc(C)cc2)c2cccc(F)c2)cc1
log(1/C) [4]: 3.31

O=C(Oc1ccc(N(CCBr)CCBr)cc1)c1cccc(Cl)c1
log1/CED90 [1]: 4.96
Ratio [2]: 3.5
log1/CLD50 [3]: 5.11

CCOC(=O)c1ccc(N(CCOS(C)(=O)=O)CCOS(C)(=O)=O)cc1
log(1/C) [4]: 4.07

O=C(Oc1ccc(N(CCBr)CCBr)cc1)c1cccc(C(F)(F)F)c1
log1/CED90 [1]: 4.99
Ratio [2]: 3.5
log1/CLD50 [3]: 5.11

CCOC(=O)c1cccc(N(CCOS(C)(=O)=O)CCOS(C)(=O)=O)c1
log(1/C) [7]: 4.63

CS(=O)(=O)OCCN(CCOS(C)(=O)=O)c1ccc(N=O)cc1
log(1/C) [11]: 6.13

CCc1ccccc1C(=O)Oc1ccc(N(CCBr)CCBr)cc1
log1/CED90 [1]: 4.96
Ratio [2]: 3.5
log1/CLD50 [3]: 4.64

CC(C)c1ccccc1C(=O)Oc1ccc(N(CCBr)CCBr)cc1
log1/CED90 [1]: 4.39
Ratio [2]: 3.5
log1/CLD50 [3]: 4.66

CCN(CC)c1ccc(OC(=O)c2ccc(C)cc2)cc1
log K [8]: -0.41

Cc1ccc(C(=O)Oc2ccc(N(CCBr)CCBr)cc2)cc1
log1/CED90 [1]: 4.94
Ratio [2]: 3.5
log1/CLD50 [3]: 5.32

CS(=O)(=O)OCCN(CCOS(C)(=O)=O)c1cccc([N+](=O)[O-])c1
log(1/C) [7]: 3.93

CCN(CC)c1ccc(OC(=O)c2ccccc2)cc1
log K [8]: -0.26

CCN(CC)c1ccc(OC(=O)c2cccc(Cl)c2)cc1
log K [8]: 0.32

CCN(CC)c1ccc(OC(=O)c2cccc(C)c2)cc1
log K [8]: 0.32

NC(Cc1ccc(N(CCCl)CCCl)cc1)C(=O)O (stereo not drawn) [SARCOLYSIN]
log(1/C) [4]: 4.94
log(1/C) [12]: 5.61
log(1/C) [13]: 5.18
